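Step 1: Grow cells in 96-well plates. Step 2: Expose to compound for 48 hours at 5 concentrations. Step 3: Interpolate endpoints linearly; if unreached, use highest concentration. GI50 = concentration required for 50% inhibition of growth. At the TGI there is no net growth.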 Where only a bound is given, the exact number is not on record here.

TGI and GI50 data for 12 compounds are collected here from PubChem BioAssay (NCI).

Test in all cases: growth of human tumour cells (NCI), 48 h
Assay [1] relates to 786-0 renal.
For assay [2], the system named is ACHN renal.
The test system of assay [3] is HT29 colon.
The subject of assay [4] is IGROV1 ovarian.
Assay [5] has as its system OVCAR-4 ovarian.
In assay [6] the test system is SF-268 CNS.
Assay [7] deals with SK-MEL-28 melanoma.
Assay [8] deals with SNB-75 CNS.
The test system of assay [9] is LOX IMVI melanoma.
The test system of assay [10] is NCI-H226 lung.

Take `CN(C)c1ccc(/C=C/C(=O)C(C)(C)C)cc1Br`: the TGI in assay [1] was 59 µM; in [2], over 100 µM; in assay [3], over 100 µM; in assay [4], over 100 µM; in [5] it was 52.2 µM; in [6], 70 µM. Also, the results for the TGI in [7] and in assay [8] were 47.7 µM and 70.3 µM, respectively.

On to `C[N+](C)([O-])CCCNc1c2ccccc2nc2cccc([N+](=O)[O-])c12`, for which the TGI in [1] stood at 0.872 µM; in assay [2] it was 3.74 µM; in assay [3] it was 0.606 µM; in assay [9] it was 6.59 µM; in assay [10], 1.39 µM; in assay [5], 3.16 µM. For the same compound, the TGI came to 8.14 µM in assay [6] and 1.4 µM in assay [8].

For the compound `COc1cc(N=Nc2ccccc2)cc(/C=N\[N-]C(N)=S)c1[O-].COc1cc(N=Nc2ccccc2)cc(/C=N\[N-]C(N)=S)c1[O-].[Fe+4]`, the GI50 in assay [1] is 36.2 µM; in assay [3], 34.9 µM; in assay [4], 29.1 µM; in assay [10], over 100 µM; in assay [5], 17.8 µM; in assay [6], 12.2 µM. The GI50 in assay [7] was 24.4 µM; in assay [8] it was 35.2 µM. The TGI in assay [1], in assay [3], in [4], in [10], in assay [5] and in assay [6] was over 100 µM throughout. For the same compound, the TGI in assay [7] and in [8] was over 100 µM in each case.

Take `COc1ccc(S(=O)(=O)N/N=C/CN2C(=O)c3ccccc3C2=O)cc1OC`: the TGI in assay [1], in assay [2], in assay [3], in [4], in assay [9] and in assay [5] was over 100 µM in each case. Moreover, the TGI in assay [6] and in assay [8] was over 100 µM throughout.

As to `OCCN(CCO)c1cccc(N(CCO)CCO)c1`, the TGI in assay [1], in [2], in assay [9], in [5], in [6] and in [7] was over 100 µM throughout. Further, the TGI in [8] was over 100 µM.

With `CNS(=O)(=O)NN(C)S(=O)(=O)c1ccc(Cl)cc1`, the TGI in assay [1], in [2], in assay [3], in assay [4], in assay [9] and in assay [10] was over 100 µM in each case. The TGI in [5], in assay [6] and in assay [8] was over 100 µM throughout.

In the case of `c1cc(C2CCCCC2)ccc1OCCCCCCN1CCNCC1`, the GI50 in [1] was 2.31 µM; in [2], 1.78 µM; in assay [3], 1.45 µM; in assay [4] it was 2.04 µM; in [10] it was 4.67 µM; in assay [5], 1.95 µM. The GI50 in assay [7] is 2.96 µM; in assay [8] it was 1.83 µM. In addition, the TGI was determined as 5.31 µM in [1]; 3.33 µM in [2]; 2.98 µM in assay [3]; 3.89 µM in assay [4]; 26.4 µM in [10]; 4.52 µM in assay [5]. Besides, the TGI in assay [7] stood at 8.76 µM; in assay [8] it was 4.5 µM.

As for `C[C@]12CC/C(=N\N)C[C@@H]1CC[C@@H]1[C@@H]2CC[C@]2(C)/C(=N/N)CC[C@@H]12`, the GI50 in [1], in assay [2], in assay [3], in assay [4], in assay [9] and in assay [5] was over 100 µM throughout. Besides, the GI50 in [6] and in [8] was over 100 µM in each case. The TGI in assay [1], in assay [2], in [3], in assay [4], in assay [9] and in [5] was over 100 µM each time. Besides, the TGI in assay [6] and in assay [8] was over 100 µM in each case.

In the case of `CC1=C(SCc2ccccc2)C(=O)c2ccccc2C1=O`, the TGI in assay [1] stood at 30.9 µM; in assay [2], 27.2 µM; in [3] it was 90.2 µM; in assay [4], 25.3 µM; in assay [9] it was 38.2 µM; in [5], 27.2 µM. The figures for the TGI in [6], in assay [7] and in [8] were 31.3 µM, 36.5 µM and 26.5 µM, respectively.

For `CCN(CC)c1ccc(N=C2C=C(C(=O)Nc3ccc(S(C)(=O)=O)cc3)C(=O)c3ccccc32)c(C)c1`, the GI50 in [1] is over 100 µM; in assay [2], over 100 µM; in assay [3], over 100 µM; in [9], 7.98 µM; in assay [10] it was over 100 µM; in assay [5], 8.91 µM. Also, the GI50 in assay [6] is 2.4 µM; in assay [7] it was over 100 µM; in [8], 3.08 µM. For the same compound, the TGI in assay [1], in assay [2], in assay [3], in [9], in assay [10] and in assay [5] was over 100 µM in each case. Also, the TGI in assay [6], in assay [7] and in assay [8] was over 100 µM each time.

For the compound `N#CCCN(CCC#N)c1ccc(/C=C2\N=C(COc3ccc(Cl)cc3Cl)OC2=O)cc1`, the TGI in assay [1], in assay [3], in assay [4], in assay [9], in [5] and in [6] was over 100 µM throughout. For the same compound, the TGI in assay [7] and in assay [8] was over 100 µM in each case.

Regarding `O=c1[nH]c(=O)n(C2CC(O)C(CO)O2)cc1C(OCC(F)(F)F)OCC(F)(F)F` (configuration not stated), the TGI in assay [1], in [2], in assay [3], in assay [4], in assay [9] and in assay [5] was over 100 µM in each case. Besides, the TGI in assay [6], in assay [7] and in assay [8] was over 100 µM each time.
